Test results taken from ChEMBL document CHEMBL1770097, “Non-competitive and selective dipeptidyl peptidase IV inhibitors with phenethylphenylphthalimide skeleton derived from thalidomide-related α-glucosidase inhibitors and liver X receptor antagonists” (Bioorg Med Chem Lett, 2011).
Activity calls are given as the source filed them. The calls are words filed in the database; no cut-off is given here.

System: not listed separately
Assay: Selectivity ratio of IC50 for DPP4 over IC50 for DPP8

Ratio IC50	SMILES
10	O=C1c2c(Cl)c(Cl)c(Cl)c(Cl)c2C(=O)N1c1cccc(CCc2cccc(C(F)(F)F)c2)c1

Target: T1, Dipeptidyl peptidase 4 (Homo sapiens, UniProt P27487)
Assay: Inhibition of DPP4 at 10 uM assessed as […] release after 1 hr relative to control
Target sequence in this assay (P27487 whole entry, looked up): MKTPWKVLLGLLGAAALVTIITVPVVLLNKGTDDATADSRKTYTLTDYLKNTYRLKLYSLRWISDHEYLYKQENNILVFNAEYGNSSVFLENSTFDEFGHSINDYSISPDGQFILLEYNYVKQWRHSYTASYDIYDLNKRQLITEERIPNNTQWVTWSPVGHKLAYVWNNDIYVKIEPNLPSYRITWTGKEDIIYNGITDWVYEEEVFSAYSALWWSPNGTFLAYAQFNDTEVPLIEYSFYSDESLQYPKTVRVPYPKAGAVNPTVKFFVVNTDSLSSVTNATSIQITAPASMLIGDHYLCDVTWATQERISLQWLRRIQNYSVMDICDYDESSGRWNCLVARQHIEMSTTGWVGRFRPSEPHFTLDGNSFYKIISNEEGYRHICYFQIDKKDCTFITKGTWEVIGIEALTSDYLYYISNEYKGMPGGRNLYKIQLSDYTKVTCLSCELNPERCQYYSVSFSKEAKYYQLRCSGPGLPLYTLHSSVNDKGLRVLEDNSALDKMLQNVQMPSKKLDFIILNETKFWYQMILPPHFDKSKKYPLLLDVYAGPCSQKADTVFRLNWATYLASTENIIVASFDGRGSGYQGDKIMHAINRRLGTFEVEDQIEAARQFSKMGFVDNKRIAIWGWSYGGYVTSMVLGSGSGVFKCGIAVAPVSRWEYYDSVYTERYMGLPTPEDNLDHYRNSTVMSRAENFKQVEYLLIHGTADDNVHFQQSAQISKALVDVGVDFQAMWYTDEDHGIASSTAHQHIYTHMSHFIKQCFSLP

SMILES	inhibition [%]
Cc1ccc(CCc2cccc(N3C(=O)c4c(Cl)c(Cl)c(Cl)c(Cl)c4C3=O)c2)cc1	25
O=C1c2c(Cl)c(Cl)c(Cl)c(Cl)c2C(=O)N1c1cccc(CCc2c(F)c(F)c(F)c(F)c2F)c1	19
O=C1c2c(Cl)c(Cl)c(Cl)c(Cl)c2C(=O)N1c1cccc(CCc2ccc(C(F)(F)F)cc2)c1	38
COc1ccc(CCc2cccc(N3C(=O)c4c(Cl)c(Cl)c(Cl)c(Cl)c4C3=O)c2)cc1OC	0
O=C1c2c(Cl)c(Cl)c(Cl)c(Cl)c2C(=O)N1c1cccc(CCc2cccc(C(F)(F)F)c2)c1	87
O=C1c2c(Cl)c(Cl)c(Cl)c(Cl)c2C(=O)N1c1ccccc1CCc1ccc(O)c(O)c1	12
O=C1c2c(Cl)c(Cl)c(Cl)c(Cl)c2C(=O)N1c1cccc(CCc2ccccc2C(F)(F)F)c1	86
COc1ccc(CCc2ccc(N3C(=O)c4c(Cl)c(Cl)c(Cl)c(Cl)c4C3=O)cc2)cc1OC	3
O=C1c2c(Cl)c(Cl)c(Cl)c(Cl)c2C(=O)N1c1cccc(CCc2ccc(F)cc2)c1	20
O=C1c2c(Cl)c(Cl)c(Cl)c(Cl)c2C(=O)N1c1ccccc1CCc1ccccc1	7
O=C1c2c(Cl)c(Cl)c(Cl)c(Cl)c2C(=O)N1c1ccc(CCc2ccccc2)cc1	12
COc1ccc(CCc2ccccc2N2C(=O)c3c(Cl)c(Cl)c(Cl)c(Cl)c3C2=O)cc1OC	2

The remaining lines, values ahead:

inhibition [%]	SMILES
26	O=C1c2c(Cl)c(Cl)c(Cl)c(Cl)c2C(=O)N1c1cccc(CCc2ccccc2)c1
5	O=C1c2c(Cl)c(Cl)c(Cl)c(Cl)c2C(=O)N1c1cccc(CCc2ccc(O)c(O)c2)c1
6	O=C1c2ccccc2C(=O)N1c1ccc(CCc2ccccc2)cc1
7	O=C1c2ccccc2C(=O)N1c1cccc(CCc2ccc(O)c(O)c2)c1
4	O=C1c2ccccc2C(=O)N1c1ccccc1CCc1ccc(O)c(O)c1
7	O=C1c2ccccc2C(=O)N1c1ccc(CCc2ccc(O)c(O)c2)cc1
11	O=C1c2c(Cl)c(Cl)c(Cl)c(Cl)c2C(=O)N1c1ccc(CCc2ccc(O)c(O)c2)cc1
0	COc1ccc(CCc2ccccc2N2C(=O)c3ccccc3C2=O)cc1OC
0	O=C1c2ccccc2C(=O)N1c1ccccc1CCc1ccccc1
2	O=C1c2ccccc2C(=O)N1c1cccc(CCc2ccccc2)c1
0	COc1ccc(CCc2ccc(N3C(=O)c4ccccc4C3=O)cc2)cc1OC
0	COc1ccc(CCc2cccc(N3C(=O)c4ccccc4C3=O)c2)cc1OC

Target: Dipeptidyl peptidase 8 (Homo sapiens, UniProt Q6V1X1)
Sequence (Q6V1X1 whole entry): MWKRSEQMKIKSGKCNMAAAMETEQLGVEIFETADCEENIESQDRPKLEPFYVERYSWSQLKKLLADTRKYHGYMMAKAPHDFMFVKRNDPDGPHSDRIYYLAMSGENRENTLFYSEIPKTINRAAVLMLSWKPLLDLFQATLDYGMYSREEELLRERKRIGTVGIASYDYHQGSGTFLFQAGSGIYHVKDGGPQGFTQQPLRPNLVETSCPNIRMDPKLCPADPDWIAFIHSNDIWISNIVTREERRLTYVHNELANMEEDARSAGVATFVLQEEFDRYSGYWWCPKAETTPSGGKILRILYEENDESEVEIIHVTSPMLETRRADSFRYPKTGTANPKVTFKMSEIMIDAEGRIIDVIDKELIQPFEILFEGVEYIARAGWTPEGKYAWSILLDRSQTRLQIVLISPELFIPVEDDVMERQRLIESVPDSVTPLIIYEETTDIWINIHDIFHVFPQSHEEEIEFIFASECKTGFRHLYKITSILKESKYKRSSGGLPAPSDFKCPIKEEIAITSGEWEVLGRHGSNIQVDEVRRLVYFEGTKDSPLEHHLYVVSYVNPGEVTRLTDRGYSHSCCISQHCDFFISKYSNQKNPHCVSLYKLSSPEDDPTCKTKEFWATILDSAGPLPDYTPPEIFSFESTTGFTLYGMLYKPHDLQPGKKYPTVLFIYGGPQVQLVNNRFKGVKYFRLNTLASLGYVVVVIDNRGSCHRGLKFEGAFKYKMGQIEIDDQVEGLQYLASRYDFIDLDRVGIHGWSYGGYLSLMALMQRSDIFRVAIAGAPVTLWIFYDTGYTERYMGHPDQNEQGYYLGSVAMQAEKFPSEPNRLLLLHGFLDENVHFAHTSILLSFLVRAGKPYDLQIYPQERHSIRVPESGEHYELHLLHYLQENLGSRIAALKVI
Assay: Inhibition of DPP8 assessed as […] release after 1 hr

IC50 [µM]	SMILES
> 30	O=C1c2c(Cl)c(Cl)c(Cl)c(Cl)c2C(=O)N1c1cccc(CCc2cccc(C(F)(F)F)c2)c1

Target: T1, Dipeptidyl peptidase 4
Assay: Inhibition of DPP4 assessed as […] release after 1 hr

IC50 [µM]	inhibition	SMILES
3.1	Active	O=C1c2c(Cl)c(Cl)c(Cl)c(Cl)c2C(=O)N1c1cccc(CCc2cccc(C(F)(F)F)c2)c1
4	Active	O=C1c2c(Cl)c(Cl)c(Cl)c(Cl)c2C(=O)N1c1cccc(CCc2ccccc2C(F)(F)F)c1
